# Legend:
# [1] = after repeated administration (Evans and Stacpoole 1982); cited from earlier work
# [2] = tested on: PDH; settings: cited from earlier work
SMILES,melting point,plasma glucose [1],"activity of PDH ([2]; after acute administration in animals (Vary et al., 1988))","proportion of PDH in its active form ([2]; single administration, 150 mg/kg, intraperitoneally (Vary et al. 1988))"
Cc1cc(C(=O)c2ccccc2)ccc1NC(=O)C(C)(O)C(F)(F)F (centres unmarked),123 to 124 °C,–,–,–
C[C@@](O)(C(=O)Nc1ccc(S(=O)(=O)c2ccccc2)cc1F)C(F)(F)F,121 to 122 °C,–,–,–
"O=C(O)C(Cl)Cl [DCA, dichloroacetic acid]",–,significant decrease in plasma glucose,increases the activity of PDH,increased the proportion of PDH in its active form

# — patent US6369273B1, “Chemical compounds and their use to elevate pyruvate dehydrogenase activity” (AstraZeneca AB, priority 1998, dated 2002)
